Experimental data as given in PMC11048283 (Biology, 2024).
Entries after “also recorded” stand apart in the source; their conditions may differ. Where two headings read alike, the source gives them in different places. Each block holds one compound with its values, some of them ahead of it.

Assays:
[1] = biological target: ScinGOBP2 (Semiothisa cinerearia, UniProt A0A889XLB8); assay: Fluorescence-based competitive binding assay with 1-NPN probe
Method: A total of 27 volatile compounds were selected for a fluorescence-based competitive binding assay based on previously reported information for S. cinerearia host plants. This experiment was performed on a spectrofluorometer F-380 (Tianjin, China) using slits of 10 nm and a light path of 1 cm. The fluorescent probe N-phenyl-1-naphthylamine (1-NPN) was excited at 337 nm, and emissions were recorded between 390 and 530 nm. The affinity of 1-NPN for ScinGOBP2 was measured by titrating a 2 μM solution of the protein with aliquots of 1 mM 1-NPN in methanol to final concentrations of 1–16 μM. The dissociation constants of 1-NPN and the proteins were calculated using the software GraphPad Prism 8.0. Competitive binding was measured via the titration of the protein/1-NPN (both at 2 μM) mixture by adding aliquots of 1 mM of methanol solution of ligand to final concentrations of 2–30 μM. Dissociation constants of the competitors were calculated using the equation KD = IC50/(1 + [1-NPN]/K1-NPN), where IC50 represents the ligand concentration achieving a 50% decrease in 1-NPN’s initial fluorescence intensity, [1-NPN] represents the free concentration of 1-NPN, and K1-NPN represents the dissociation constant of the complex ScinGOBP2/1-NPN.

[2] = tested on: female S. cinerearia; assay: Two-choice oviposition preference assay; type: in vivo, Semiothisa cinerearia; settings: 100 μg in paraffin oil vs solvent control; eggs counted after 48 h
Method: The oviposition preference of female S. cinerearia for the ScinGOBP2 ligands was assessed in a screened enclosure (length/width/height = 86 cm:46 cm:48 cm). To ensure mating of all the female moths, newly emerged males and females were cohabitated in a rearing enclosure (30 cm × 30 cm × 30 cm) at a sex ratio of 1:2 for a period of 2 days. Mated females for subsequent experiments were randomly selected from this enclosure. Each screened cage housed five gravid females. For adult nourishment, a small Petri dish containing 10% honey solution was positioned at the cage’s base center. Test compounds (100 μg, diluted in paraffin oil) or the solvent control (paraffin oil) were applied to a cotton ball, which was then affixed to the opposite inner sides of the cage. After 48 h, the number of eggs deposited on the gauze on both the treatment and control sides was counted. The oviposition preference index was determined using the formula (T − C)/(T + C), where T represents the egg count on the treatment side and C represents the count on the control side. Each experiment was replicated eight times.

[3] = tested on: S. cinerearia antennae; assay: Electroantennogram (EAG) recordings; design: species or system Semiothisa cinerearia; settings: 10 μL of 10 μg/μL in paraffin oil, control subtracted, n = 12
Method: Electroantennogram recordings were carried out to measure the antennal responses of S. cinerearia to ScinGOBP2 ligands. The antennae of S. cinerearia adults were carefully removed from the base, and the tips were carefully cut off. The prepared antennae were affixed to electrode holders using conductive electrode gel. Subsequently, a 10 μL aliquot of the test compound (10 μg/μL, diluted in paraffin oil) was applied to a strip of filter paper. This strip was then placed into a 1000 µL pipette tip, serving as a cartridge. The test cartridge was connected to a stimulus controller (CS-55; Syntech, Kirchzarten, Germany) that delivered a 0.5 s stimulus every 30 s at a constant flow rate of 10 mL/s. Antennal signals were recorded using an EAG Pro system (Syntech). In all the experiments, antennae were exposed to a solvent control (paraffin oil) at the beginning and end of a series of sample measurements. Test stimuli were presented in a randomized sequence, interspersed between two control puffs. The EAG responses to the test odors were adjusted by subtracting the mean amplitude of the two control signals. EAG responses were measured from a cohort of twelve insects, each with different antennae (n = 12).

[4] = tested on: AipsGOBP2; design: method as in PMID 29778539; settings: cited from earlier work
[5] = tested on: OachGOBP2; design: method as in PMID 36975901; settings: cited from earlier work
[6] = KD, competitive displacement of 1-NPN, protein/1-NPN both at 2 μM, ligand 2–30 μM, KD = IC50/(1 + [1-NPN]/K1-NPN), mean ± SE
[7] = competitive displacement of 1-NPN, protein/1-NPN both at 2 μM, ligand 2–30 μM, KD = IC50/(1 + [1-NPN]/K1-NPN), mean ± SE, read-out: KD

Chain of ScinGOBP2 (A0A889XLB8 entry or part of it): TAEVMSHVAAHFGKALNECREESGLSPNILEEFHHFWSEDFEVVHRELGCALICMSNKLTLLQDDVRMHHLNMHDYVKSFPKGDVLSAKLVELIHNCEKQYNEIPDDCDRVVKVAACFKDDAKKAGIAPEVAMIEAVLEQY

Structure (SMILES): c1ccc(Nc2cccc3ccccc23)cc1 [1-NPN, N-phenyl-1-naphthylamine, reference compound]
- Kd ([1]; dissociation constant (KD) for the ScinGOBP2/1-NPN complexes, direct titration of 2 μM protein with 1-NPN 1–16 μM): 2.27 µM

Structure (SMILES): C=CCCCCCCC [1-Nonene]
- Kd [1, 6]: 12.2 ± 0.44 µM
- Kd ([1]; competitive displacement of 1-NPN, protein/1-NPN both at 2 μM, ligand 2–30 μM, KD = IC50/(1 + [1-NPN]/K1-NPN), mean ± SE): < 15 µM
- Oviposition preference of mated females [2]: deter S. cinerearia from ovipositing; also recorded: marked repellent behavioral responses

- Kd [1, 7]: 5.07 ± 0.27 µM
Structure (SMILES): CCCCCCCCCC=O [Decanal]
- EAG mean response value, males ([3]; male antennae): 0.063 mV
- Oviposition preference of mated females [2]: significant preference for laying eggs; also recorded: significant attractant behavioral responses

Structure (SMILES): C=C(C)[C@H]1CC=C(C)CC1 [Dipentene]
- Kd [1, 6]: 14.9 ± 0.77 µM
- EAG mean response value, females ([3]; female antennae): 0.086 mV
- Oviposition preference of mated females [2]: deter S. cinerearia from ovipositing; also recorded: marked repellent behavioral responses

- Kd [1, 7]: 2.21 ± 0.17 µM
Structure (SMILES): CC(=O)CC/C=C(\C)CCC=C(C)C [Geranyl acetone]
- Oviposition preference of mated females [2]: deter S. cinerearia from ovipositing; also recorded: marked repellent behavioral responses

- Kd [1, 7]: 14.17 ± 0.04 µM
Structure (SMILES): CC/C=C\CCOC(=O)CCC [cis-3-Hexenyl butyrate]
- Oviposition preference of mated females [2]: significant preference for laying eggs; also recorded: significant attractant behavioral responses

- Kd [1, 7]: 6.55 ± 0.18 µM
Structure (SMILES): CC/C=C\CCOC(=O)CCCC [cis-3-Hexenyl n-valerate]
- Oviposition preference of mated females [2]: significant preference for laying eggs; also recorded: significant attractant behavioral responses

Structure (SMILES): CC/C=C\CCO [cis-3-hexen-1-ol]
- binding affinity for AipsGOBP2 [4]: high binding affinity

Structure (SMILES): CCCCOC(=O)c1ccccc1C(=O)OCCCC [dibutyl phthalate]
- binding affinity for AipsGOBP2 [4]: high binding affinity

Structure (SMILES): CC(C)=CCC/C(C)=C/CC/C(C)=C/CO [farnesol]
- binding affinity for OachGOBP2 [5]: high binding affinity

Structure (SMILES): CCCCCCCC/C=C\CCCCCCCC(=O)O [oleic acid]
- binding affinity for AipsGOBP2 [4]: high binding affinity

Structure (SMILES): CC1=CCC2CC1C2(C)C (stereo not drawn) [α-Pinene]
- Kd [1, 6]: 9.41 ± 0.28 µM
- Oviposition preference of mated females [2]: significant preference for laying eggs; also recorded: significant attractant behavioral responses

Structure (SMILES): CC1=CC[C@H](C(C)C)C=C1 [α-phellandrene]
- binding affinity for OachGOBP2 [5]: high binding affinity

Structure (SMILES): C=C1CCC2CC1C2(C)C (stereo not drawn) [β-Pinene]
- Kd [1, 6]: 13.2 ± 0.19 µM
- Oviposition preference of mated females [2]: deter S. cinerearia from ovipositing; also recorded: marked repellent behavioral responses

Structure (SMILES): C=C1CC/C=C(\C)CC[C@@H]2[C@@H]1CC2(C)C [β-caryophyllene]
- binding affinity for AipsGOBP2 [4]: high binding affinity
